The values below come from US6506901B2, “Substituted 2-(S)-hydroxy-3-(piperidin-4-yl-methylamino)-propyl ethers and substituted 2-aryl-2-(R)-hydroxy-1-(piperidin-4-yl-methyl)-ethylamine β-3 adrenergic receptor agonists” (Wyeth, priority 2000, dated 2003).

For this assay, the target named is T1, human β3 receptors (Homo sapiens, UniProt P13945).
T1 construct: Full length β3 AR clones (402 amino acids) containing the last 6 amino acids of hβ3—AR; expressed in transfected cells; host or cells: CHO cells
Nature of the assay: cAMP response (SPA) in CHO cells expressing cloned human β3 adrenergic receptor. The class given is cell-based. The conditions noted are these: for EC50: CHO cells expressing human β3 receptor, cAMP, 30 min incubation, 10^−9 M to 10^−5 M; for IA(β3): maximal response compared to the maximal response of isoproterenol at 10^−5 M. As for the experimental part:
Binding to the receptors was measured in Chinese Hamster ovary (CHO) cells that were transfected with adrenergic receptors.
Cloning of Human β3-AR Genomic DNA: cDNA was constructed by ligating four polymerase chain reaction (PCR) products using the following primers: an ATG-NarI fragment, sense primer 5′-[…]3′ and anti-sense primer 5′ […]3′; a NarI-AccI fragment, 5′ […]3′ as sense and 5′ […]3′ as anti-sense primer; an AccIi-StyI fragment, sense primer 5′ […]3′ and anti-sense primer 5′ […]3′ and a StyI-TAG fragment, with sense primer 5′ […]3′ and anti-sense primer 5′ […]3′. The corresponding primer sequences are described in Mantzoros, C. […] The four fragments are ligated into a pUC 18 plasmid (Gibco-BRL) and sequenced.
CHO cells were grown in 24-well tissue culture plates in Dulbecco's Modified Eagle Media with 10% fetal bovine serum, MEM non-essential amino acids, Penicillin-Streptompycin and Geneticin. […] Isoproterenol (10^−5 M) was used as an internal standard for comparison of activity. Cells were incubated at 37° C. on a rocker for 30 min with the β3 cells and 15 min for β1 and β2 cells. Incubation was stopped with the addition of 0.2N HCl and neutralized with 2.5N NaOH. The plates, containing the cells and neutralized media, were stored at −20 degrees celsius until ready to test for cAMP using the SPA test kit (Amersham).
Data Analysis and Results: Data collected from the SPA test procedure were analyzed as per cent of the maximal isoproterenol response at 10^−5 M. Activity curves were plotted using the SAS statistical and graphics software.

T1 sequence (P13945 whole entry): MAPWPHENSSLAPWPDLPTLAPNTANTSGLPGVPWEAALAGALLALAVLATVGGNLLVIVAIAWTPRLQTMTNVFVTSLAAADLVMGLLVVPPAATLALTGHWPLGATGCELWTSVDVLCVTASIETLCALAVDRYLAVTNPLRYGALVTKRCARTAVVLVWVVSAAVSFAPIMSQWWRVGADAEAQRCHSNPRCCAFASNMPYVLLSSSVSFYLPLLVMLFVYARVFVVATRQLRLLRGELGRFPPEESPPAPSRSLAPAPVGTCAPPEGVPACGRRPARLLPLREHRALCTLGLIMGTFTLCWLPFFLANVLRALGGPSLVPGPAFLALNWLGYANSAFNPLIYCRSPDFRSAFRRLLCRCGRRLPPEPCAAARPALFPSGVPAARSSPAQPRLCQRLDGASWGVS

`CS(=O)(=O)Nc1cc(C(O)CNCC2CCN(S(=O)(=O)c3ccc(-c4noc(CCC(=O)O)n4)cc3)CC2)ccc1O` (stereo in doubt) [Example 105, 3-(3-{4-[(4-{[((2S)-2-Hydroxy-2-{4-hydroxy-3-[(methylsulfonyl)amino]-phenyl}ethyl)amino]methyl}-1-piperidinyl)sulfonyl]phenyl}-1,2,4-oxadiazol-5-yl)propanoic Acid]: the EC50 came out at 34 nM and the “IA(β3)” value was found to be 0.94.

Take `CS(=O)(=O)Nc1cc([C@@H](O)CNCC2CCN(c3ccc(C(=O)NC(Cc4ccccc4)C(=O)O)cc3)CC2)ccc1O` (stereo in doubt) [Example 109, (2S)-2-{[4-(4-{[((2R)-2-Hydroxy-2-{4-hydroxy-3-[(methylsulfonyl)amino]phenyl}-ethyl)amino]methyl}piperidin-1-yl)benzoyl]amino}-3-phenylpropanoic Acid]: the EC50 was found to be 31 nM and the “IA(β3)” value is reported as 1.2.

As to `CS(=O)(=O)Nc1cc([C@@H](O)CNCC2CCN(c3ccc(C(=O)N4CCCC4C(=O)O)cc3)CC2)ccc1O` (stereo in doubt) [Example 115, (2S)-1-[4-(4-{[((2R)-2-Hydroxy-2-{4-hydroxy-3-[(methylsulfonyl)amino]phenyl}-ethyl)amino]methyl}piperidin-1-yl)benzoyl]pyrrolidine-2-carboxylic Acid], the EC50 stood at 66 nM and the “IA(β3)” value was 1.

For `O=c1[nH]c2ccc(OCC(O)CNCC3CCN(S(=O)(=O)c4cccc(Br)c4)CC3)cc2[nH]1` (stereo in doubt) [Example 178], the EC50 was 210 nM and the “IA(β3)” value was determined as 0.84.

Regarding `O=C1c2ccccc2-c2c(OC[C@@H](O)CNCC3CCN(CCC(F)(F)F)CC3)cccc21` [Example 13, 4-(2-Hydroxy-3-{[1-(3,3,3-trifluoro-propyl)-piperidin-4-ylmethyl]-amino}-propoxy)-fluoren-9-one], it took 596 nM to reach a half-maximal effect (EC50) and the “IA(β3)” value is on record as 0.62.

Take `OC1c2ccccc2-c2c(OC[C@@H](O)CNCC3CCN(CCC(F)(F)F)CC3)cccc21` (stereo partly drawn) [Example 14, 4-((2S)-2-Hydroxy-3-{[1-(3,3,3-trifluoro-propyl)-piperidin-4-ylmethyl]-amino}-propoxy)-9H-fluoren-9-ol]: the response was half-maximal at 219 nM (EC50) and the “IA(β3)” value is reported as 0.75.

For `Oc1ccc2[nH]c3ccccc3c2c1OC[C@@H](O)CNCC1CCN(CCC(F)(F)F)CC1` [Example 15, 4-((2S)-2-Hydroxy-3-{[1-(3,3,3-trifluoro-propyl)-piperidin-4-ylmethyl]-amino}-propoxy)-9H-carbazol-3-ol], the midpoint of the response, the EC50, lay at 12500 nM and the “IA(β3)” value was 0.52.

Regarding `O[C@@H](CNCC1CCN(CCC(F)(F)F)CC1)COc1c(Cl)ccc2[nH]c3ccccc3c12` [Example 19, (2S)-1-(3-Chloro-9H-carbazol-4-yloxy)-3-{[1-(3,3,3-trifluoro-propyl)-piperidin-4-ylmethyl]-amino}-propan-2-ol], a half-maximal response (EC50) required 1240 nM and the “IA(β3)” value is 0.82.

In the case of `O=c1[nH]c2cccc(OC[C@@H](O)CNCC3CCN(CCC(F)(F)F)CC3)c2[nH]1` [Example 22, 4-((2S)-2-Hydroxy-3-{[1-(3,3,3-trifluoro-propyl)-piperidin-4-ylmethyl]-amino}-propoxy)-1,3-dihydro-benzoimidazol-2-one], a half-maximal response (EC50) required 1210 nM and the “IA(β3)” value came out at 0.53.

As for `Cc1cc2c(OC[C@@H](O)CNCC3CCN(CCC(F)(F)F)CC3)cccc2[nH]1` [Example 23, (2S)-1-(2-Methyl-1H-indol-4-yloxy)-3-{[1-(3,3,3-trifluoro-propyl)-piperidin-4-ylmethyl]-amino}-propan-2-ol], the response was half-maximal at 1090 nM (EC50) and the “IA(β3)” value amounted to 0.66.

Turning to `O[C@@H](CNCC1CCN(CCCC(F)(F)F)CC1)COc1cccc2[nH]c3ccccc3c12` [Example 24, (2S)-1-(9H-Carbazol-4-yloxy)-3-{[1-(4,4,4-trifluoro-butyl)-piperidin-4-ylmethyl]-amino}-propan-2-ol], the response was half-maximal at 943 nM (EC50) and the “IA(β3)” value amounted to 0.98.

As a reminder, the EC50 is the concentration needed to bring the measured effect to its halfway point. High values mean a less potent agent, low ones a more potent agent.
